Data on six compounds can be found in patent publication US20230107216A1, “PANTETHEINE DERIVATIVES AND USES THEREOF” (Comet Therapeutics, Inc., priority 2018, published 2023).

SMILES strings stand for the structures. Where two headings read alike, the source gives them in different places.

Test [1] has as its system Methylmalonic Acidemia (MMA) primary fibroblasts Tsi 5224. In words: Mitochondrial respiration, XFe96 Extracellular Flux Analyzer (OCR/ECAR), MMA fibroblasts Tsi 5224.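 Note: relative to vehicle DMSO control.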 As to conditions: Homo sapiens, Fibroblast, read-out: Increase in Maximal Respiratory Capacity AUC. The class given is cell-based. The protocol:
The effect of the compounds of the present disclosure on mitochondrial respiration was measured with a XFe96 Extracellular Flux Analyzer (Seahorse Bioscience, Agilent Technologies) and Oxygen consumption Rate (OCR) and Extracellular acidification rate (ECAR) determined.
Cell culture and treatments. Primary adherent fibroblasts were cultured in minimum essential medium (MEM) (Gibco, 25030081) supplemented with 2 mM L-Glutamine (Gibco, 25030081), 15% fetal bovine serum (FBS) (Gibco, 26400044) and 1% penicillin/streptomycin (Gibco, 5140122) at 37° C. and 5% CO2. Cells were collected for either passaging or experiment at ˜70-80% confluence. Cells were obtained by trypsinization and seeded at 20000 cells/well in cell culture microplates (Seahorse Bioscience, 101085-004) and allowed to adhere for 16 hours in culture media.
By profiling different primary cells and/or optimizing their culture media or environmental components one can select cell lines and/or conditions that are appropriate for the biological or disease model. In the present example, 24 hours prior to OCR and ECAR profiling, media was changed to Dulbecco's Modified Eagle Medium (DMEM, Agilent Seahorse 103575-100) with the appropriate supplements for the different primary cells (10 mM glucose, 2 mM L-glutamine, 1 mM pyruvate, 10% FBS; 1 mM glucose, 2 mM L-glutamine, 1 mM pyruvate, 10% FBS; 10 mM glucose, 10% FBS; 5 mM glucose 10% FBS; 1 mM glucose 10% FBS). Cells used in this example were: Propionic Acidemia (PA) (GM00371, GM03590 Coriell Institute for Medical Research, Tsi 6337, Tsi 4626, Tsi 3618 Trans-Hit Bio), Methylmalonic Acidemia (MMA) (GM01673, Coriell Institute for Medical Research, Tsi 5224 Trans-Hit Bio), Branched chain ketoacid dehydrogenase kinase (BCKDK) (GM00612, GM00649 Coriell Institute for Medical Research), Subnormal activation of pyruvate dehydrogenase complex (PDH) (GM01503 Coriell Institute for Medical Research), Very long-chain acyl-CoA dehydrogenase (VLCAD) (GM17475), Leigh Syndrome (LS) (GM03672, GM13411 Coriell Institute for Medical Research), Pyruvate Carboxylase Deficiency (PC) (GM00444 Coriell Institute for Medical Research), Glutaric Acidemia-I (GA) (GM10653), Friedreich's Ataxia (FXN) (GM04078 Coriell Institute for Medical Research, Huntington's disease (HD) (GM21756 Coriell Institute for Medical Research), Ornithine Transcarbamylase Deficiency (OTC) (GM12756 Coriell Institute for Medical Research), Kearns-Sayre Syndrome (KSS) (GM06225 Coriell Institute for Medical Research).
One hour before the assay, the cells were washed with freshly prepared unbuffered serum free-Seahorse XF Assay medium (Seahorse Bioscience, North America, USA, 103575-100) with the same supplements as for the previous 24 hour incubation.
After baseline measurements of OCR, cells were challenged with compounds of the present disclosure at different concentrations (10 to 50 μM) or vehicle (DMSO, 0.1%) and a post-compound baseline was recorded. OCR was measured after sequentially adding to each well 1 μg/ml oligomycin (inhibitor of ATP synthase Sigma-Aldrich, 753531), then maximal OCR was determined with carbonyl cyanide 4-(trifluoromethoxy) phenylhydrazone (FCCP, Sigma-Aldrich, C2920), (uncoupler of oxidative phosphorylation) and 0.5 μM of rotenone (Sigma-Aldrich, R8875) plus antimycin A (Sigma-Aldrich, A8674) (inhibitors of mitochondrial complex I and III) for determination of rotenone-antimycin insensitive respiration together with Hoechst for nuclear staining in situ when normalized to cell counts. After the analysis and nuclear staining, the XFp microplate was transferred to the Cytation 5, and the nuclear images were captured, the individual nuclei were identified and counted by BioTek Gen5 software. Data were expressed as pmol of O2 per minute and normalized by nuclear staining and baselined to pre-compound addition.
Assay conditions were as stated below.
Assay specifics on assay conditions are indicated below when readouts were normalized to cell counts. […]

In a further test the test system is HepG2 cells. The test can be described thus: Mitochondrial membrane potential (MITO-ID MP detection Kit). The following applies: Homo sapiens, 168 h, 7 days. The format is cell-based. How it is done:
HepG2 cells (ATCC, HB-8065) were cultured (5% CO2 at 37° C.) and plated in Poly-D-Lysine 384-Well plate (Corning, 356663) at a density of 160000 cells/mL in 50 μL/well. Culture and assay media consisted of DMEM (Gibco, 11995-065) supplemented with 1% Penicillin-Streptomycin and 10% FBS (Hyclone, SV30087.03).
MITO-ID® MP detection Kit (ENZ-51018) was used and manufacturer instructions followed. Cells were allowed to settle for 30 min at room temperature and further incubated overnight (37° C. and 5% CO2) for adherence. Next day, test compounds (50-10 μM) and vehicle DMSO (0.2%) were added at the recommended volumes to the 384-well plate for 7 days without media change using a Tecan compound dispenser. All the solutions and wash buffers were prepared and dispensed according to manufacturer's volumes for a 384-well plate format.

Test [2] concerns primary fibroblasts (healthy controls and PA, MMA, BCKDK, PDH, VLCAD, LS, PC, GA, VLCFA, KSS, FXN, HD). In words: Measurement of ROS (H2DCFDA) in primary fibroblasts. The class given is cell-based, human. The following applies: Homo sapiens, procedure Example 812. The protocol: Primary adherent fibroblasts were cultured in minimum essential medium (MEM) (Gibco, 25030081) supplemented with 2 mM L-Glutamine (Gibco, 25030081), 15% fetal bovine serum (FBS) (Gibco, 26400044) and 1% penicillin/streptomycin (Gibco, 5140122) at 37° C. and 5% CO2. Cells were collected for either passaging or experiment at ˜70-80% confluence. Cells were obtained by trypsinization and seeded in cell culture microplates either white plate (Thermo Fisher Scientific, 152028) for luminescent measurement or black plate (Thermo Fisher Scientific, 165305) for fluorescent based read out for different assays listed below. Cells were obtained by trypsinization and […] were seeded and allowed to adhere for 16-18 hours to have confluency around 70-80% in the cell well with culture media. After 24 hours prior to measurements (37° C., 5% CO2) media was changed to Dulbecco's Modified Eagle Medium (DMEM, Agilent Seahorse cat #103575-100) with the appropriate supplements as stated below.
Primary fibroblasts assayed were Healthy controls (GM00041, GM05659, GM23974 Coriell Institute for Medical Research), Propionic Acidemia (PA) (GM00371, GM03590 Coriell Institute for Medical Research, Tsi 6337 Trans-Hit Bio), Methylmalonic Acidemia (MMA) (GM01673, Coriell Institute for Medical Research, Tsi 5224, Tsi 4290 Trans-Hit Bio), Branched chain ketoacid dehydrogenase kinase (BCKDK) (GM00612, GM00649 Coriell Institute for Medical Research), Subnormal activation of pyruvate dehydrogenase complex (PDH) (GM01503 Coriell Institute for Medical Research), Very long-chain acyl-CoA dehydrogenase (VLCAD) (GM17475), Leigh Syndrome (LS) (GM03672, GM13411 Coriell Institute for Medical Research), Pyruvate Carboxylase Deficiency (PC) (GM00444 Coriell Institute for Medical Research), Glutaric Acidemia-I (GA), Impaired VLCFA oxidation (VLCFA) (GM13262), Kearns-Sayre Syndrome (KSS) (GM06225 Coriell Institute for Medical Research), Friedreich's Ataxia (FXN), Huntington's disease (HD) (GM21756 Coriell Institute for Medical Research). Next, cells were treated with compounds (10 μM) and ROS H2DCFDA (22 μM) dye for 2 hours in PA, MMA lines and for 24h for the other fibroblast lines. Kinetic read was started immediately with a i3x plate reader (492/527 nm) for 60 minutes.
A total dead cell count was performed as described in Example 817 and only alive cells were used for analysis.

In test [3] the test system is Venular Endothelial cells (HUVEC) (4H system). The test can be described thus: BioMAP 4H system (IL-4 and histamine). The format is cell-based, human. As to conditions: procedure of Example 826; for % decrease in Eotaxin-3: 1 uM.
Test [4] has as its system monocyte-derived M1 macrophages. In words: M1 differentiation assay (macrophage TNFα, IL6, IL10 ELISA, FACS). The class given is cell-based, human. The following applies: Homo sapiens, Macrophage. How it is done: Monocytes were isolated by positive isolation with CD14+ microbeads (Miltenyi, 130-050-201). Monocytes were 99% viable and were 96% purity as analyzed by FACS and CD14+ (BD, 563561). 100,000 monocytes along with compounds at the dose of 10 and 50 μM were allowed to differentiate to macrophages with 10 ng/ml GMCSF (R&D, 15-GM-050/CF) in RPMI complete media (Invitrogen, 22400089) with 15% FBS (Hyclone SV30087.03) and 1% Penicillin-Streptomycin (Gibco, 15140-122). On day 2 and 4 half the media was refreshed with fresh GM-CSF and compounds at 10 and 50 μM dose. On day 6 the macrophages were matured with GMCSF, IFNγ (R&D 285-IF-100/CF) and LPS (Sigma, L6143) in the presence of 10 μM and 50 μM of compounds. After 24h, supernatant was collected for the measurement of TNFα (DKW, 1117202) IL6 (DKW, 1110602), IL10 (DKW, 1110003) by ELISA. Macrophages were detached gently on ice with EDTA (Invitrogen, 15575-038) and analyzed by FACS (BD LSR Fortessa, 853492). Cells were stained for live/dead dye, surface and intracellular markers with fixation/permeabilization solution (BD, 554714) and ALIVE/DEAD™ Fixable Near-IR Dead Cell Stain Kit (BD, L34976), mouse anti human CD86 APC (BD, 555660), mouse anti-human CD163 PE (BD, 556018), mouse anti-human CD68 FITC (BD, 562117) or isotype controls anti-mouse IgG1 κ PE (BD, 559320) and anti-mouse IgG1 κ APC (BD, Anti mouse IgG1 κ APC (BD, 55571). Mature M1 macrophages were defined as CD86+CD68+CD163− and increase in TNFα, IL6, and decrease in IL-10.

Test [5] has as its system Peripheral blood mononuclear cells co-cultured with venular endothelial cells (HUVEC) (LPS system). In words: BioMAP LPS system. The class given is cell-based, human. The following applies: Homo sapiens, HUVEC, 24 h, 10 uM, procedure of Example 827.
Setting [6] is: Fibroblast, BCKD GM00612, Assay Condition A, read-out: Decreased ROS by at least 10%.

Take `CC(C)(CO)[C@@H](O)C(=O)NCCC(=O)NCCSC(=O)C(O)CO` (some centres unmarked) [Compound 399]: in test [1] (MMA Tsi 5224, assay condition D (1 mM glucose, 10% FBS)), the activation at 10 µM is no less than 10%. Moreover, the inhibition at 10 µM with HepG2 cells (10 uM, read-out: % decrease in Mitochondrial Membrane Potential) is greater than 30%; in test [2] (setting [6]) it was no less than 10%.

Regarding `COC(=O)C[C@H](N)C(=O)SCCNC(=O)CCNC(=O)[C@H](O)C(C)(C)CO` [Compound 451], the “% decrease in Eotaxin-3” value in test [3] is no less than 10%.

Take `CC(=O)NCCCC(=O)OCC(C)(C)[C@@H](O)C(=O)NCCC(=O)NCCSC(=O)CC(=O)NCCc1c[nH]cn1` [Compound 633]: the “% decrease in Eotaxin-3” value in test [3] is listed as no less than 10%.

Consider `CC1(C)OC(=O)C(CC(=O)SCCNC(=O)CCNC(=O)[C@H](O)C(C)(C)CO)O1` (stereo partly drawn) [Compound 1238, S-(2-(3-((R)-2,4-dihydroxy-3,3-dimethylbutanamido)propanamido)ethyl) 2-(2,2-dimethyl-5-oxo-1,3-dioxolan-4-yl)ethanethioate], for which the activation at 10 µM in test [1] (MMA Tsi 5224, assay condition A (10 mM glucose, 2 mM L-glutamine, 1 mM pyruvate, 10% FBS)) was no less than 10%. The inhibition at 10 µM in test [4] (10 uM, read-out: % decrease in Macrophage TNFα Secretion) is no less than 30%. The activation at 50 µM with HepG2 cells (50 uM, read-out: % increase in Mitochondrial Membrane Potential) turned out to be 20%.

Consider `CCC(=O)C(C)C(=O)SCCNC(=O)CCNC(=O)[C@H](O)C(C)(C)CO` (stereo partly drawn) [Compound 1251, S-(2-(3-((R)-2,4-dihydroxy-3,3-dimethylbutanamido)propanamido)ethyl) 2-methyl-3-oxopentanethioate], for which the inhibition at 50 µM was no less than 30% in test [4] (read-out: % decrease in Macrophage IL-6 Secretion); no less than 30% in test [4] (read-out: % decrease in Macrophage TNFα Secretion); greater than 30% with HepG2 cells (50 uM, read-out: % decrease in Mitochondrial Membrane Potential). The inhibition at 10 µM in test [2] (setting [6]) was no less than 10%; in test [2] (Fibroblast, VLCFA GM13262, Assay Condition C, read-out: Decreased ROS by at least 30%), no less than 30%; in test [2] (FXN GM04078, Assay Condition C, read-out: Decreased ROS by at least 10%), no less than 10%; in test [2] (FXN GM04078, Assay Condition C, read-out: Decreased ROS by at least 30%) it was no less than 30%.

With `CC(C)(CO)[C@@H](O)C(=O)NCCC(=O)NCCS` [Prep Ex 5], the inhibition at 10 µM in test [3] (Homo sapiens, HUVEC, 24 h, 10 uM, read-out: % decrease in E-Selectin) is no less than 20%; in test [5] (read-out: % decrease in IL-1α) it was no less than 20%; in test [5] (read-out: % decrease in IL-8) it was no less than 10%; in test [5] (read-out: % decrease in TissueFactor), no less than 10%. Further, the activation at 10 µM in test [5] (read-out: % increase in sTNFα) is no less than 20%.
